Data on 30 compounds can be found in US11186554B2, “Non-fused tricyclic compounds” (VIVACE THERAPEUTICS, INC., priority 2017, dated 2021).

Molecules are shown by their SMILES. A value given as a limit tells only on which side of the number the result lay.

The first assay concerns firefly luciferase activity. In words: Dual-Glo firefly/renilla luciferase reporter assay in cells. Format: cell-based. Particulars: 24 h, read-out: Firefly Luciferase IC50 (μM).
Turning to `OCCn1nnc(-c2cccnc2Nc2ccc(C(F)(F)F)cc2)n1` [Compound 69, 2-(5-(2-((4-(trifluoromethyl)phenyl)amino)pyridin-3-yl)-2H-tetrazol-2-yl)ethanol], the half-maximal inhibitory concentration (IC50) lay in the range of 0.1 to 1 µM. Regarding `OCCn1nnc(-c2cccnc2Nc2ccc(OC(F)(F)F)cc2)n1` [Compound 75, 2-(5-(2-((4-(trifluoromethoxy)phenyl)amino)pyridin-3-yl)-2H-tetrazol-2-yl)ethanol], the 50% inhibitory concentration (IC50) is 0.1 to 1 µM. Turning to `OCCn1nnc(-c2cnccc2Nc2ccc(C(F)(F)F)cc2)n1` [Compound 78, 2-[5-[4-[4-(trifluoromethyl)anilino]-3-pyridyl]tetrazol-2-yl]ethanol], the half-inhibitory concentration (IC50) was 1 to 5 µM.

`NC(=O)Cn1nnc(-c2ccccc2Nc2ccc(C(F)(F)F)cc2)n1` [Compound 102, 2-[5-[2-[4-(trifluoromethyl)anilino]phenyl]tetrazol-2-yl]acetamide]: the half-maximal inhibitory concentration (IC50) was less than 0.1 µM.

`CC(O)Cn1nnc(-c2ccccc2Nc2ccc(C(F)(F)F)cc2)n1` (stereo not drawn) [Compound 105, 1-[5-[2-[4-(trifluoromethyl)anilino]phenyl]tetrazol-2-yl]propan-2-ol]: the concentration for half-maximal inhibition (IC50) was less than 0.1 µM. `O=C(Cn1nnc(-c2ccccc2Nc2ccc(C(F)(F)F)cc2)n1)NO` [Compound 113, 2-[5-[2-[4-(trifluoromethyl)anilino]phenyl]tetrazol-2-yl]ethanehydroxamic acid]: the IC50 fell in the range of 0.1 to 1 µM. Take `O=C(Cn1nnc(-c2ccccc2Nc2ccc(C(F)(F)F)cc2)n1)C1CC1` [Compound 121, 1-cyclopropyl-2-[5-[2-[4-(trifluoromethyl)anilino]phenyl]tetrazol-2-yl]ethanone]: the IC50 was 0.1 to 1 µM.

Staying with this assay, now noted: 24 hrs compound treatment, starting from 3 uM, 1:3 dilution, 10 points; read-out: Firefly Luciferase IC50.
Take `O=C(O)Cn1cc(-c2ccccc2Nc2ccc(C(F)(F)F)cc2)cn1` [Compound 61, 2-(4-(2-((4-(trifluoromethyl)phenyl)amino)phenyl)-1H-pyrazol-1-yl)acetic Acid]: the IC50 lay in the range of 0.1 to 1 µM. The same measure, in the same setting: the figure for `CN(C)CCCn1nnc(-c2ccccc2Nc2ccc(C(F)(F)F)cc2)n1` [Compound 62, 2-(2-(3-(dimethylamino)propyl)-2H-tetrazol-5-yl)-N-(4-(trifluoromethyl)phenyl) Aniline] is 1 to 5 µM; for `CN(C)CCCn1nnc(-c2ccccc2Nc2ccc(OC(F)(F)F)cc2)n1` [Compound 63, 2-(2-(3-(dimethylamino)propyl)-2H-tetrazol-5-yl)-N-(4-(trifluoromethoxy)phenyl) Aniline] it is 1 to 5 µM. In the case of `CCOC(=O)Cn1cc(-c2ccccc2Nc2ccc(C(F)(F)F)cc2)c(C)n1` [Compound 76, ethyl 2-[3-methyl-4-[2-[4-(trifluoromethyl)anilino]phenyl]pyrazol-1-yl]acetate], the half-maximal inhibitory concentration (IC50) lay in the range of 0.1 to 1 µM. Consider `CCOC(=O)Cn1ncc(-c2ccccc2Nc2ccc(C(F)(F)F)cc2)c1C` [Compound 77, ethyl 2-[5-methyl-4-[2-[4-(trifluoromethyl)anilino]phenyl]pyrazol-1-yl]acetate], for which the IC50 is less than 0.1 µM. As to `Cc1nn(CCO)cc1-c1ccccc1Nc1ccc(C(F)(F)F)cc1` [Compound 83, 2-[3-methyl-4-[2-[4-(trifluoromethyl)anilino]phenyl]pyrazol-1-yl]ethanol], the IC50 lay within 1 to 5 µM. Turning to `Cc1c(-c2ccccc2Nc2ccc(C(F)(F)F)cc2)cnn1CCO` [Compound 84, 2-[5-methyl-4-[2-[4-(trifluoromethyl)anilino]phenyl]pyrazol-1-yl]ethanol], the IC50 was in the range of 1 to 5 µM. Regarding `CCOC(=O)Cn1ncc(-c2ccccc2Nc2cccc(C(F)(F)F)c2)c1C` [Compound 90, ethyl 2-(5-methyl-4-(2-((3-(trifluoromethyl)phenyl)amino)phenyl)-1H-pyrazol-1-yl)acetate], the 50% inhibitory concentration (IC50) lay within 1 to 5 µM. As for `CC(=O)NCCn1nnc(-c2ccccc2Nc2ccc(C(F)(F)F)cc2)n1` [Compound 92, N-[2-[5-[2-[4-(trifluoromethyl)anilino]phenyl]tetrazol-2-yl]ethyl]acetamide], the IC50 is 0.1 to 1 µM. Regarding `CS(=O)(=O)NCCn1nnc(-c2ccccc2Nc2ccc(C(F)(F)F)cc2)n1` [Compound 93, N-[2-[5-[2-[4-(trifluoromethyl)anilino]phenyl]tetrazol-2-yl]ethyl]methane Sulfonamide], the half-maximal inhibitory concentration (IC50) lay in the range of 1 to 5 µM. As for `OCCCn1nnc(-c2ccccc2Nc2ccc(C(F)(F)F)cc2)n1` [Compound 98, 3-(5-(2-((4-(trifluoromethyl)phenyl)amino)phenyl)-2H-tetrazol-2-yl)propan-1-01], the IC50 was less than 0.1 µM. Turning to `NS(=O)(=O)NCCn1nnc(-c2ccccc2Nc2ccc(C(F)(F)F)cc2)n1` [Compound 99, 2-[2-(sulfamoylamino)ethyl]-5-[2-[4-(trifluoromethyl)anilino]phenyl]tetrazole], the half-maximal inhibitory concentration (IC50) lay in the range of 1 to 5 µM. The same measure, in the same setting: the figure for `NS(=O)(=O)Cn1nnc(-c2ccccc2Nc2ccc(C(F)(F)F)cc2)n1` [Compound 101, (5-(2-((4-(trifluoromethyl)phenyl)amino)phenyl)-2H-tetrazol-2-yl)methane sulfonamide] is 0.1 to 1 µM; for `CC(C)(O)Cn1nnc(-c2ccccc2Nc2ccc(C(F)(F)F)cc2)n1` [Compound 106] it is less than 0.1 µM. As for `NC(=O)NCCn1nnc(-c2ccccc2Nc2ccc(C(F)(F)F)cc2)n1` [Compound 108, 2-[5-[2-[4-(trifluoromethyl)anilino]phenyl]tetrazol-2-yl]ethylurea], the half-inhibitory concentration (IC50) was less than 0.1 µM. Regarding `CS(=O)(=O)NCCCn1nnc(-c2ccccc2Nc2ccc(C(F)(F)F)cc2)n1` [Compound 109, N-(3-(5-(2-((4-(trifluoromethyl)phenyl)amino)phenyl)-2H-tetrazol-2-yl)propyl)methanesulfonamide], the concentration for half-maximal inhibition (IC50) lay within 1 to 5 µM.

`CC(=O)NCCCn1nnc(-c2ccccc2Nc2ccc(C(F)(F)F)cc2)n1` [Compound 111, N-[3-[5-[2-[4-(trifluoromethyl)anilino]phenyl]tetrazol-2-yl]propyl]acetamide]: the half-inhibitory concentration (IC50) is 0.1 to 1 µM. The same measure, in the same setting: the value for `OCC(O)Cn1nnc(-c2ccccc2Nc2ccc(C(F)(F)F)cc2)n1` (stereo not drawn) [Compound 114, 3-(5-(2-((4-(trifluoromethyl)phenyl)amino)phenyl)-2H-tetrazol-2-yl)propane-1,2-diol] was less than 0.1 µM. As for `CCOC(=O)C(C)n1nnc(-c2ccccc2Nc2ccc(C(F)(F)F)cc2)n1` (stereo not drawn) [Compound 116, ethyl 2-[5-[2-[4-(trifluoromethyl)anilino]phenyl]tetrazol-2-yl]propanoate], the half-maximal inhibitory concentration (IC50) is less than 0.1 µM. As for `FCCn1nnc(-c2ccccc2Nc2ccc(C(F)(F)F)cc2)n1` [Compound 117, 2-[2-(2-fluoroethyl)tetrazol-5-yl]-N-[4-(trifluoromethyl)phenyl]aniline], the IC50 lay within 0.1 to 1 µM. As for `FC(F)(F)c1ccc(Nc2ccccc2-c2nnn(C3CCOC3)n2)cc1` (stereo not drawn) [Compound 119, 2-(2-(tetrahydrofuran-3-yl)-2H-tetrazol-5-yl)-N-(4-(trifluoromethyl)phenyl) Aniline], the IC50 was less than 0.1 µM.

Regarding `FC(F)(F)c1ccc(Nc2ccccc2-c2nnn(C3CCCOC3)n2)cc1` (stereo not drawn) [Compound 120, 2-(2-tetrahydropyran-3-yltetrazol-5-yl)-N-[4-(trifluoromethyl)phenyl]aniline], the IC50 was in the range of 0.1 to 1 µM. `FC(F)(F)c1ccc(Nc2ccccc2-c2nnn(C3CCOCC3)n2)cc1` [Compound 122, 2-(2-tetrahydropyran-4-yltetrazol-5-yl)-N-[4-(trifluoromethyl)phenyl]aniline]: the IC50 fell in the range of 0.1 to 1 µM.
